Holding throughout (assay): growth of human tumour cells (NCI), 48 h
The subject of assay [1] is BT-549.
Assay [2] deals with HCC 2998.
Assay [3] relates to HCT-15.
Assay [4] relates to HT-29.
Assay [5] concerns IGROV-1.
Assay [6] relates to K562.
In assay [7] the test system is MCF7.
Assay [8] concerns MDA-MB-435.
In assay [9] the test system is MDA-N.
For assay [10], the system named is NCI-H522.
The subject of assay [11] is NCI/ADR-RES.
The test system of assay [12] is PC-3.
Assay [13] deals with RPMI-8226.
Assay [14] has as its system SK-MEL-28.
For assay [15], the system named is SK-MEL-2.
The test system of assay [16] is SNB-75.
The subject of assay [17] is SW-620.
The test system of assay [18] is NCI-H226.
Assay [19] concerns HL-60.
The test system of assay [20] is LOX IMVI.

Molecules are shown by their SMILES.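 Tested at 5 concentrations; 48 h exposure; 96-well plates; endpoints linearly interpolated, else capped at highest concentration. Here, GI50 denotes the concentration required for 50% inhibition of growth.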 Active and inactive are the calls of the source. Cut-off read from the data, not from the text of the source: active = GI50 up to about 1.1 µM and inactive = higher.

Consider `COC1OC(Cn2c(C)nc(Br)c2Br)C(O)C(O)C1O` (configuration not stated), for which the GI50 in assay [1] was > 100 µM (inactive); in assay [2] it was > 100 µM (inactive); in assay [3] it was over 100 µM; in assay [4] it was > 100 µM (inactive); in assay [5], > 100 µM (inactive); in assay [6] it was > 100 µM (inactive). Besides, the GI50 in [7], in [8], in [9], in assay [10], in assay [11] and in assay [12] was > 100 µM (inactive) throughout. The GI50 in [13], in assay [14], in assay [15], in assay [16] and in assay [17] was > 100 µM (inactive) each time.
Take `COc1ccc(/C=N/n2c(Cc3ccccc3)n[nH]c2=O)cc1`: the GI50 in assay [1] was 29.1 µM (inactive); in assay [2] it was > 100 µM (inactive); in [3], over 100 µM; in assay [4] it was > 100 µM (inactive); in assay [6], > 100 µM (inactive); in assay [7] it was > 100 µM (inactive). Moreover, the GI50 in assay [8], in assay [9], in assay [18], in assay [11], in assay [12] and in assay [13] was > 100 µM (inactive) each time. For the same compound, the GI50 in assay [14], in [15], in assay [16] and in [17] was > 100 µM (inactive) each time.
On to `Nc1c(Cl)ncnc1NCC1(CO)CCC1`, for which the GI50 in assay [1] is > 100 µM (inactive); in assay [3], over 100 µM; in [19], > 100 µM (inactive); in [4], > 100 µM (inactive); in assay [5], > 100 µM (inactive); in [6], > 100 µM (inactive). In addition, the GI50 in assay [20], in assay [7], in [8], in assay [9], in [18] and in assay [10] was > 100 µM (inactive) in each case. For the same compound, the GI50 in assay [11], in [12], in assay [13], in assay [14], in [15] and in assay [16] was > 100 µM (inactive) throughout. Besides, the GI50 in assay [17] is > 100 µM (inactive).
As to `COC(=O)[C@H](C)N(C)C(=O)[C@H](C)N1[C@@H](c2ccccc2)COC1(C)C`, the GI50 in [1] is > 100 µM (inactive); in assay [3], over 100 µM; in assay [19], > 100 µM (inactive); in assay [4] it was > 100 µM (inactive); in [5], > 100 µM (inactive); in [6], > 100 µM (inactive). Besides, the GI50 in [20], in assay [7], in assay [8], in assay [9], in assay [18] and in assay [10] was > 100 µM (inactive) in each case. Besides, the GI50 was > 100 µM (inactive) in [11]; > 100 µM (inactive) in [12]; > 100 µM (inactive) in [13]; > 100 µM (inactive) in [14]; > 100 µM (inactive) in assay [15]; 92.7 µM (inactive) in [16]. In addition, the GI50 in assay [17] is > 100 µM (inactive).
Take `CC(C)(C)OC(=O)CN1CCNCCNCC1`: the GI50 in assay [1] is > 100 µM (inactive); in [3], over 100 µM; in [19], 9.55 µM (inactive); in [4], > 100 µM (inactive); in [5], > 100 µM (inactive); in assay [6], > 100 µM (inactive). For the same compound, the GI50 in [20], in assay [7], in [8], in assay [9], in assay [18] and in assay [10] was > 100 µM (inactive) throughout. The GI50 in assay [11], in [12], in assay [13], in [14], in assay [15] and in assay [16] was > 100 µM (inactive) throughout. Also, the GI50 in [17] was > 100 µM (inactive).
Consider `COc1ccc(NC(=S)NNC(=O)c2cc(-c3ccccc3)nc3ccccc23)cc1`, for which the GI50 is 14.1 µM (inactive) in assay [1]; 12.1 µM (inactive) in assay [2]; 12.3 µM in assay [3]; 19.9 µM (inactive) in [4]; 26.5 µM (inactive) in assay [5]; 15.7 µM (inactive) in assay [6]. The GI50 was 0.568 µM (active) in assay [7]; 2.95 µM (inactive) in assay [8]; 4.03 µM (inactive) in assay [9]; 20.1 µM (inactive) in assay [18]; 17.1 µM (inactive) in [10]; 12.3 µM (inactive) in assay [11]. Also, the GI50 in [12] was 19.2 µM (inactive); in assay [13] it was 11.4 µM (inactive); in [14], 10.4 µM (inactive); in assay [15], 16 µM (inactive); in assay [16], 16.1 µM (inactive); in assay [17], 14.6 µM (inactive).
Turning to `C=C(C)c1nc(C#N)c(N)o1`, the GI50 was > 100 µM (inactive) in [1]; > 100 µM (inactive) in [2]; over 100 µM in assay [3]; > 100 µM (inactive) in assay [4]; 36.3 µM (inactive) in [5]; > 100 µM (inactive) in [6]. Further, the GI50 in [20], in assay [7], in assay [8], in [9], in assay [18] and in assay [11] was > 100 µM (inactive) throughout. The GI50 in assay [12], in assay [13], in assay [14], in assay [15] and in [17] was > 100 µM (inactive) throughout.
For `CN(C)CCOc1ccc(-c2c(Oc3ccccc3)c(=O)oc3ccccc23)cc1`, the GI50 in assay [1] was 13.6 µM (inactive); in assay [2], 6.62 µM (inactive); in assay [3], 10.3 µM; in assay [4], 12.5 µM (inactive); in assay [5], 10.7 µM (inactive); in assay [6], 2.39 µM (inactive). The GI50 in [20] is 13.1 µM (inactive); in [7] it was 4.66 µM (inactive); in [8] it was 4.89 µM (inactive); in assay [9] it was 2.19 µM (inactive); in assay [18] it was 16 µM (inactive); in assay [10], 11.3 µM (inactive). For the same compound, the GI50 is 11.2 µM (inactive) in [11]; 9.93 µM (inactive) in assay [12]; 14.1 µM (inactive) in assay [13]; 12.4 µM (inactive) in [14]; 13.4 µM (inactive) in assay [15]; 9.59 µM (inactive) in assay [16]. Also, in assay [17], the GI50 was 11.4 µM (inactive).
For the compound `O=C(O)c1c(-c2nccc3ccccc23)[nH]c(-c2ccccc2)c1S(=O)(=O)O`, the GI50 in assay [1] was > 100 µM (inactive); in assay [3], over 100 µM; in assay [19] it was 41.8 µM (inactive); in assay [4] it was > 100 µM (inactive); in assay [5], > 100 µM (inactive); in assay [20] it was > 100 µM (inactive). Besides, the GI50 in assay [7], in [8], in assay [9], in assay [18], in assay [10] and in [11] was > 100 µM (inactive) each time. Besides, the GI50 in assay [12], in [13], in [14], in assay [15], in [16] and in assay [17] was > 100 µM (inactive) in each case.
As for `O=[N+]([O-])c1cc(Cl)cc2c1nc(NCCO)c1ccccc12`, the GI50 is 15.4 µM (inactive) in assay [1]; 4.36 µM in assay [3]; 3.5 µM (inactive) in assay [19]; 0.063 µM (active) in [4]; 15.2 µM (inactive) in assay [5]; 4.39 µM (inactive) in assay [6]. Moreover, the GI50 was 17.2 µM (inactive) in assay [20]; 2.28 µM (inactive) in [7]; 6.17 µM (inactive) in assay [8]; 4.62 µM (inactive) in assay [9]; 13.5 µM (inactive) in [18]; 13.6 µM (inactive) in [10]. Further, the GI50 in [11] is 23.5 µM (inactive); in assay [12] it was 4.97 µM (inactive); in assay [13] it was 6.25 µM (inactive); in [14] it was 39.5 µM (inactive); in assay [15] it was 10.5 µM (inactive); in assay [16], 20.4 µM (inactive). For the same compound, in assay [17], the GI50 is 4.5 µM (inactive).
In the case of `CC(C(=O)NCNC(=O)c1ccccc1)C(=O)NCc1ccccc1` (configuration not stated), the GI50 in assay [1] was > 100 µM (inactive); in [3], over 100 µM; in [19] it was > 100 µM (inactive); in [4] it was > 100 µM (inactive); in [5], > 100 µM (inactive); in assay [7], > 100 µM (inactive). Also, the GI50 in [8] was > 100 µM (inactive); in [9], > 100 µM (inactive); in [18], > 100 µM (inactive); in assay [10] it was 99.3 µM (inactive); in assay [11], > 100 µM (inactive); in assay [12] it was > 100 µM (inactive). Moreover, the GI50 in assay [13], in assay [15], in [16] and in [17] was > 100 µM (inactive) throughout.
